Starred links: 1 amine or outer side, 2 acyl side, 3 side chain; linkers in the order of their positions; H or OH if unused. Non-standard residues stand in square brackets, D forms with d. Residues, ends and D or L forms follow the SMILES beside them. X1 = CC[C@@H](C)[C@@H](O[*:1])C(=O)[*:2]; NMeVal(β-OH) = CN[C@H](C(=O)O)C(C)(C)O; NMeF = CN[C@@H](Cc1ccccc1)C(=O)O; aIle = CC[C@@H](C)[C@H](N)C(=O)O; NMeV = CN[C@H](C(=O)O)C(C)C
Key:
[1] = test system: YPH499-HIS-GAL-AUR1 complemented with ScIPCS; experiment: Agar diffusion assay, yeast mutant rescued with ScIPCS; format: cell-based, S. cerevisiae; settings: FIG. 5A; 25 μM Aureobasidin A, 1 mM myriocin, 25 μM cycloheximide spotted
Experimental: (§1) A. Volumes of 1, 2 and 3 μl of 25 μM Aureobasidin A (AbA), 1 mM myriocin (MYR), 25 μM cycloheximide (CYC) and DMSO as a control (CTL) spotted onto yeast plates prepared as described in Experimental Procedures. B. Volumes of 1, 2 and 3 μl of 100 μM Aureobasidin A spotted onto yeast plates prepared as described in Experimental Procedures.
(§2) YPH499—wild type yeast; ScIPCS—YPH499-HIS-GAL-AUR1 pRS426 ScIPCS; LmIPCS—YPH499-HIS-GAL-AUR1 pRS426 LmIPCS; AGD—yeast sphingolipid bypass mutant, negative control.
(§3) Agar diffusion assay—Wild type YPH499 yeast and the transgenic strain YPH499-HIS-GAL-AUR1 complemented with ScIPCS or LmIPCS were assayed for susceptibility to Aureobasidin A (Takara), myriocin (Sigma) and cycloheximide (Sigma) as previously described (19). Briefly, 2.4×10^7 logarithmically dividing cells were embedded in 15 ml of YPD agararose (2% dextrose, 1% yeast extract, 2% peptone, 0.8% agarose) on […] square Petri dishes (Sarstedt). Inhibitors were applied in DMSO at the concentrations described below and the dishes incubated at 30° C.
(§4) In this study, the diffusion assay system previously described, with the sphingolipid bypass mutant (AGD) as a negative control, was utilized (6,19).

[2] = test system: YPH499-HIS-GAL-AUR1 complemented with LmIPCS; experiment: Agar diffusion assay, yeast mutant rescued with LmIPCS; format: cell-based, S. cerevisiae
Experimental: as §1, §2, §3, §4

Wild type YPH499 yeast = experiment: Agar diffusion assay, wild type yeast; format: cell-based, S. cerevisiae; settings: FIG. 5A; 25 μM Aureobasidin A, 1 mM myriocin, 25 μM cycloheximide spotted
Experimental: as §1, §2, §3, §4

T. cruzi enzyme (TcIPCS) = settings: even at levels 1000 fold higher than that which inhibit the S. cerevisiae enzyme; crude parasite membrane extracts; cited from earlier work
[3] = test system: samples from fungal Aspergillus spp.; settings: lack of susceptibility attributed to efflux; cited from earlier work
[4] = test system: AGD yeast sphingolipid bypass mutant; experiment: Agar diffusion assay, sphingolipid bypass mutant (negative control); format: cell-based, S. cerevisiae; settings: 100 μM Aureobasidin A
Experimental: as §1, §2, §3, §4

[5] = test system: parasites without an active sphingolipid biosynthetic pathway; experiment: Effect on Leishmania parasites without an active sphingolipid biosynthetic pathway; format: cell-based; settings: 20 μM; data not shown
insect stage Leishmania = experiment: Effect on insect stage Leishmania in culture; format: cell-based; settings: 20 μM; data not shown
IPC synthase = biological target: T1, IPC synthase (Saccharomyces cerevisiae, UniProt P36107); settings: with respect to ceramide; cited from earlier work
T1 sequence (P36107 1-401): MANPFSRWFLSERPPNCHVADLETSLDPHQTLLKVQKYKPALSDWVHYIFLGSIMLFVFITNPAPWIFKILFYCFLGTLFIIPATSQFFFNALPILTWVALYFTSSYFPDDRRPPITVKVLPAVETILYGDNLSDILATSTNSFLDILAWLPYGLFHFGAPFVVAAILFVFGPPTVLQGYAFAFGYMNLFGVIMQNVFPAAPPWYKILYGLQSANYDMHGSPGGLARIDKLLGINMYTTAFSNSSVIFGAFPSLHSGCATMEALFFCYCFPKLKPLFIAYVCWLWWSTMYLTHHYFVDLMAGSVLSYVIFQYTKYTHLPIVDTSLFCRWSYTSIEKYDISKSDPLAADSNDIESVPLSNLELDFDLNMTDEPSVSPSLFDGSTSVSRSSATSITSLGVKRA
T1 sequence (Q06346 1-221 partner): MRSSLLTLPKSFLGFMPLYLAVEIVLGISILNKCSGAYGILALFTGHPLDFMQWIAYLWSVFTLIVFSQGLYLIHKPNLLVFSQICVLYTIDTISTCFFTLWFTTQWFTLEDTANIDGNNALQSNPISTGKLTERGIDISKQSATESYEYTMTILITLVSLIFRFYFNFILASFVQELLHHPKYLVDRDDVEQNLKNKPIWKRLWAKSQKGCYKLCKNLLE

[6] = FIG. 5A, 1, 2 and 3 μl of 25 μM Aureobasidin A, 1 mM myriocin, 25 μM cycloheximide spotted, 30° C.

Row | SMILES | susceptibility in agar diffusion assay [1] | sensitivity compared with wild-type or mutant rescued with ScIPCS ([2]; FIG. 5A, 1 mM myriocin) | susceptibility in agar diffusion assay [2, 6] | susceptibility in agar diffusion assay (Wild type YPH499 yeast) | T. cruzi enzyme activity (T. cruzi enzyme (TcIPCS)) | susceptibility in agar diffusion assay ([2]; FIG. 5B, 100 μM Aureobasidin A, 1, 2 and 3 μl spotted) | susceptibility of Aspergillus spp. samples [3] | inhibitory effect on growth [4] | activity against parasites in which LmIPCS is redundant, relative to insect stage Leishmania [5] | effect against insect stage Leishmania in culture (insect stage Leishmania) | specificity of the inhibitor in Leishmania culture (insect stage Leishmania) | mode of inhibition (IPC synthase)
1 | CCCCCCC(=O)CCCCCC/C=C/C[C@@H](O)[C@H](O)[C@@](N)(CO)C(=O)O [myriocin] | sensitive | increased sensitivity | sensitive | sensitive |  |  |  |  |  |  |  | 
2 | C[C@@H]1C[C@@H]([C@H](O)CC2CC(=O)NC(=O)C2)C(=O)[C@@H](C)C1 [cycloheximide] | sensitive |  | sensitive | sensitive |  |  |  |  |  |  |  | 
3 | C=C1/C=C(\C)[C@H](CC)CC(=O)[C@H](C)C(=O)[C@@](O)(CO)C/C(OC)=C/[C@@H](C)C1 [rustmicin] |  |  |  |  | unaffected |  |  |  |  |  |  | 
4 | CC[C@@H](C)[C@@H]1NC(=O)[C@@H]2CCCN2C(=O)[C@H](Cc2ccccc2)N(C)C(=O)[C@H](Cc2ccccc2)NC(=O)[C@H](C(C)C)N(C)C(=O)[C@@H]([C@H](C)CC)OC(=O)[C@H](C(C)(C)O)N(C)C(=O)[C@H](CC(C)C)NC(=O)[C@H](C(C)C)N(C)C1=O [Aureobasidin A] (cyclo(F[NMeF]P[aIle][NMeV]L[NMeVal(β-OH)][X1][NMeV])) | sensitive |  | resistant | sensitive | unaffected | sensitivity of LmIPCS to the drug was evident | only susceptible to Aureobasidin A in the presence of mammalian multi-drug resistance modulators | lack of an inhibitory effect | equivalent activity | exhibited an effect | non-specific | non-competitive inhibitor

From patent US20100292179A1, “TARGET” (The University of Durham, priority 2006, published 2010)
